Measurements from article PMC8369832, “Purification and Characterization of a Thermo- and pH-Stable Laccase From the Litter-Decomposing Fungus Gymnopus luxurians and Laccase Mediator Systems for Dye Decolorization” (Frontiers in Microbiology, 2021).

Tested on: T1, GLL (purified laccase from Gymnopus luxurians)
T1 construct: native extracellular enzyme purified from fermentation broth; monomer, 64 kDa (SDS-PAGE and gel filtration); N-terminus AIGPVTDLHI; gene not cloned; N-terminus very unlike hypothetical G. luxurians laccases KIK69235.1, KIK58304.1, KIK56882.1
Test: spectrophotometric oxidation at […] nm, Lineweaver-Burk plot
Format: biochemical, Collybiopsis luxurians
Conditions: pH 2.2 (50 mM citric acid-Na2HPO4), 37 °C; ABTS 12.5-800 μM; free enzyme

- Km: 539 µM
SMILES: CCn1c(=NN=c2sc3cc(S(=O)(=O)O)ccc3n2CC)sc2cc(S(=O)(=O)O)ccc21 [ABTS, 2,2′-azino-bis(3-ethylbenzothiazoline-6-sulfonic acid)]
